Data published in patent publication US20230203040A1, “CRYSTALLINE FORMS OF A SULFONAMIDE COMPOUND AND PROCESSES FOR PREPARING THE SAME” (CRYSTAL PHARMATECH CO., LTD., priority 2020, published 2023).
Values after ≈ are worked out from the molar mass of the structure shown.

Legend:
Assay type in all cases: physicochemical
[1] = Solubility of crystalline forms in FaSSIF, FeSSIF and pure water (saturated solutions, HPLC); conditions: 37° C.; for Solubility in water: pure water
Description: The sample contents in saturated solutions were determined by high performance liquid chromatography (HPLC).

[2] = Compressibility of crystalline forms (manual tableting, hardness and tensile strength); conditions: for hardness (radial crushing force) / Tensile strength: tablet pressed at 10 KN; for hardness (radial crushing force): 24 hours in dryer; for Tensile strength: T=2H/πDL
Description: A manual tableting machine was used to perform the tableting. […] 10 KN pressure was applied to suppress into cylindrical tablets, which were placed in a dryer for 24 hours. After the complete elastic restoration, the tablets were tested with a tablet hardness meter for its radial crushing force (hardness, H). Diameter (D) and thickness (L) of the tablets were measured with a Vernier caliper, and the tensile strength of the powder under different hardness was calculated using the formula T=2H/πDL. Under a certain pressure, the higher the tensile strength was, the better the compressibility was.

[3] = Hygroscopicity by dynamic vapor sorption (DVS); conditions: 25° C.; for Weight gain at 80% RH: 80% relative humidity; for Weight gain at 95% RH: 95% relative humidity
Description: The dynamic vapor sorption diagrams of the present invention were collected on Intrinsic-type and Intrinsic Plus-type dynamic vapor sorption instruments of SMS company. The process parameters of the dynamic vapor sorption test of the present invention were as follows: Temperature: 25° C. Protection gas and its flow rate: N2, 200 mL/minute dm/dt: 0.002%/minute Minimum dm/dt equilibration time: 10 minutes Maximum Equilibration Time: 180 minutes Relative humidity range: 0% RH-95% RH-0% RH Relative humidity gradient: 10% (0% RH-90% RH-0% RH), 5% (90% RH-95% RH and 95% RH-90% RH). Each about 10 mg of Crystalline Form of the present invention and Crystalline Form A of WO2020/008391A was weighed for dynamic vapor sorption (DVS) test, and then sampled to measure XRPD. The experimental results were shown in Table 21, and the dynamic vapor sorption diagrams of Crystalline Forms A and E were shown in FIGS. 22-23 respectively.

[4] = Intrinsic dissolution rate; conditions: pH 6.8 Phosphate Buffer, 37° C., paddle 100 rpm, sheet 0.5 cm^2
Description: The intrinsic dissolution rate data of the present invention were collected on an Agilent 708DS-type dissolution apparatus of the Agilent company. The intrinsic dissolution test conditions were as follows.
An intact pressed sheet was transferred to the dissolution apparatus for testing the intrinsic dissolution rate, and the slope was calculated according to the measurement points between 10 and 30 minutes, expressed in mg/mL, and the intrinsic dissolution rate (IDR) was further calculated according to the slope, expressed in mg/min/cm^2. The dissolution rate of Crystalline Form E of the present invention was faster than that of Crystalline Form A of the prior art.

Row | SMILES | solubility in FaSSIF, FeSSIF and pure water compared with Crystalline Form A [1] | Solubility in FaSSIF ([1]; equilibrated 1 hour) | Solubility in FaSSIF ([1]; equilibrated 2 hours) | Solubility in FaSSIF ([1]; equilibrated 4 hours) | Solubility in FeSSIF ([1]; equilibrated 1 hour) | Solubility in FeSSIF ([1]; equilibrated 2 hours) | Solubility in FeSSIF ([1]; equilibrated 4 hours) | Solubility in water ([1]; equilibrated 1 hour) | Solubility in water ([1]; equilibrated 2 hours) | Solubility in water ([1]; equilibrated 4 hours) | tensile strength and compressibility compared with Crystalline Form A ([2]; 10 KN) | hardness (radial crushing force) [2] | Tensile strength [2] | Weight gain at 80% RH [3] | Weight gain at 95% RH [3] | dissolution rate (intrinsic) compared with Crystalline Form A [4]
1 | CCCS(=O)(=O)N[C@H]1C[C@@H](N(C)c2ncnc3[nH]ccc23)C1 [Crystalline Form E] | higher | 0.1538 mg/mL (≈ 476 µM) | 0.1645 mg/mL (≈ 509 µM) | 0.1694 mg/mL (≈ 524 µM) | 0.0384 mg/mL (≈ 119 µM) | 0.0392 mg/mL (≈ 121 µM) | 0.0441 mg/mL (≈ 136 µM) | 0.1147 mg/mL (≈ 355 µM) | 0.1386 mg/mL (≈ 429 µM) | 0.1562 mg/mL (≈ 483 µM) | higher tensile strength and better compressibility | 17.20 N | 2.607 MPa | 0.11% | 0.19% | faster
2 | CCCS(=O)(=O)N[C@H]1C[C@@H](N(C)c2ncnc3[nH]ccc23)C1 [Crystalline Form F] | – | 0.1890 mg/mL (≈ 584 µM) | 0.2035 mg/mL (≈ 629 µM) | 0.2142 mg/mL (≈ 662 µM) | 0.0516 mg/mL (≈ 160 µM) | 0.0549 mg/mL (≈ 170 µM) | 0.0592 mg/mL (≈ 183 µM) | 0.1796 mg/mL (≈ 555 µM) | 0.1892 mg/mL (≈ 585 µM) | 0.2030 mg/mL (≈ 628 µM) | – | – | – | – | – | –
3 | CCCS(=O)(=O)N[C@H]1C[C@@H](N(C)c2ncnc3[nH]ccc23)C1 [Crystalline Form A, reference compound] | – | 0.0723 mg/mL (≈ 224 µM) | 0.0780 mg/mL (≈ 241 µM) | 0.0761 mg/mL (≈ 235 µM) | 0.0094 mg/mL (≈ 29.1 µM) | 0.0094 mg/mL (≈ 29.1 µM) | 0.0096 mg/mL (≈ 29.7 µM) | 0.0643 mg/mL (≈ 199 µM) | 0.0747 mg/mL (≈ 231 µM) | 0.0723 mg/mL (≈ 224 µM) | – | 17.01 N | 1.805 MPa | 0.09% | 0.27% | –
